In brackets after ≈: the same amount, converted by molar mass.

The subject of the assay is Staphylococcus aureus Smith. Put plainly: MIC assay, modified agar dilution (CLSI), S. aureus Smith. The format is cell-based. As to conditions: Staphylococcus aureus, agar dilution, 35° C., 16-20 hr; lowest concentration that completely inhibited growth; read-out: S_aureus_Smith_WT_MIC. The gist of the method:
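Agar dilution per CLSI on Mueller Hinton agar (plus 5% horse blood for S. pneumoniae and E. faecium), compound 128 to 0.001 μg/mL in two-fold steps. Spots of ~1×10^4 CFU incubated at 35 °C for 16-20 hr before MIC scoring.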
A general note: Agar dilution tests growth on a series of plates holding different concentrations.
On to `COc1ccc2ncc(F)c(CCC34CCC(NCc5cn(C)c(=O)n(C)c5=O)(CC3)CO4)c2n1` [Example 94, 5-((1-(2-(3-Fluoro-6-methoxy-1,5-naphthyridin-4-yl)ethyl)-2-oxabicyclo[2.2.2]octan-4-ylamino)methyl)-1,3-dimethylpyrimidine-2,4(1H,3H)-dione], for which the MIC was over 16 µg/mL.

As for `COc1ccc2ncc(F)c(CCC34CCC(NCc5ccc(OC(F)F)c(OC)c5)(CC3)CO4)c2n1` [Example 95, N-(4-(Difluoromethoxy)-3-methoxybenzyl)-1-(2-(3-fluoro-6-methoxy-1,5-naphthyridin-4-yl)ethyl)-2-oxabicyclo[2.2.2]octan-4-amine], the MIC was 0.5 µg/mL (≈ 0.966 µM).

With `COc1ccc2ncc(F)c(CCC34CCC(NCc5cc6c(cn5)OCC(=O)N6)(CC3)CO4)c2n1` [Example 96, 7-(((1-(2-(3-Fluoro-6-methoxy-1,5-naphthyridin-4-yl)ethyl)-2-oxabicyclo[2.2.2]octan-4-yl)amino)methyl)-1H-pyrido[3,4-b][1,4]oxazin-2(3H)-one], the MIC was determined as 0.031 µg/mL (≈ 0.0628 µM).

Turning to `COc1ccc2ncc(F)c(CCC34CCC(NCc5nc6ccccc6[nH]c5=O)(CC3)CO4)c2n1` [Example 97, 3-(((1-(2-(3-Fluoro-6-methoxy-1,5-naphthyridin-4-yl)ethyl)-2-oxabicyclo[2.2.2]octan-4-yl)amino)methyl)quinoxalin-2(1H)-one], the MIC came to 1 µg/mL (≈ 2.04 µM).

As to `COc1ccc2ncc(F)c(CCC34CCC(NCc5nc6c(cc5F)OCC(=O)N6)(CC3)CO4)c2n1` [Example 98, 7-Fluoro-6-(((1-(2-(3-fluoro-6-methoxy-1,5-naphthyridin-4-yl)ethyl)-2-oxabicyclo[2.2.2]octan-4-yl)amino)methyl)-2H-pyrido[3,2-b][1,4]oxazin-3(4H)-one], the MIC came out at 0.016 µg/mL (≈ 0.0313 µM).

Regarding `COc1ccc2ncc(F)c(CCC34CCC(NCc5ccc6c(n5)NC(=O)C(C)(C)O6)(CC3)CO4)c2n1.Cl` [Example 99, 6-((1-(2-(3-Fluoro-6-methoxy-1,5-naphthyridin-4-yl)ethyl)-2-oxabicyclo[2.2.2]octan-4-ylamino)methyl)-2,2-dimethyl-2H-pyrido[3,2-b][1,4]oxazin-3(4H)-one], the MIC was found to be 0.25 µg/mL.

With `COc1ccc2ncc(F)c(CCC34CCC(NCc5ccc6c(n5)N(C)C(=O)CO6)(CC3)CO4)c2n1` [Example 101, 6-((1-(2-(3-Fluoro-6-methoxy-1,5-naphthyridin-4-yl)ethyl)-2-oxabicyclo[2.2.2]octan-4-ylamino)methyl)-4-methyl-2H-pyrido[3,2-b][1,4]oxazin-3(4H)-one], the MIC is 2 µg/mL (≈ 3.94 µM).

Consider `COc1ccc2ncc(F)c(CCC34CCC(NCc5cc6cc(F)ccc6n(C)c5=O)(CC3)CO4)c2n1` [Example 102, 6-Fluoro-3-((1-(2-(3-fluoro-6-methoxy-1,5-naphthyridin-4-yl)ethyl)-2-oxabicyclo[2.2.2]octan-4-ylamino)methyl)-1-methylquinolin-2(1H)-one], for which the MIC worked out at 2 µg/mL (≈ 3.84 µM).

Consider `COc1ccc2ncc(F)c(CCC34CCC(NCc5c(OC)c6ccccc6n(C)c5=O)(CC3)CO4)c2n1` [Example 103, 3-((1-(2-(3-Fluoro-6-methoxy-1,5-naphthyridin-4-yl)ethyl)-2-oxabicyclo[2.2.2]octan-4-ylamino)methyl)-4-methoxy-1-methylquinolin-2(1H)-one], for which the MIC came out at 4 µg/mL (≈ 7.51 µM).

Turning to `COc1ccc2ncc(F)c(CCC34CCC(NCc5cc6ccc(Cl)cc6n(C)c5=O)(CC3)CO4)c2n1` [Example 104, 7-Chloro-3-((1-(2-(3-fluoro-6-methoxy-1,5-naphthyridin-4-yl)ethyl)-2-oxabicyclo[2.2.2]octan-4-ylamino)methyl)-1-methylquinolin-2(1H)-one], the MIC was over 8 µg/mL.

Turning to `COc1ccc2ncc(F)c(CCC34CCC(NCc5cc6ccc(F)cc6n(C)c5=O)(CC3)CO4)c2n1` [Example 105, 7-Fluoro-3-((1-(2-(3-fluoro-6-methoxy-1,5-naphthyridin-4-yl)ethyl)-2-oxabicyclo[2.2.2]octan-4-ylamino)methyl)-1-methylquinolin-2(1H)-one], the MIC is 2 µg/mL (≈ 3.84 µM).

`COc1ccc2ncc(F)c(CCC34CCC(NCc5cc6c(Cl)cccc6n(C)c5=O)(CC3)CO4)c2n1` [Example 106, 5-Chloro-3-((1-(2-(3-fluoro-6-methoxy-1,5-naphthyridin-4-yl)ethyl)-2-oxabicyclo[2.2.2]octan-4-ylamino)methyl)-1-methylquinolin-2(1H)-one]: the MIC was found to be 1 µg/mL (≈ 1.86 µM).

For the compound `COc1ccc2ncc(F)c(CCC34CCC(NCc5ccc6oc(=O)[nH]c6n5)(CC3)CO4)c2n1` [Example 107, 5-((1-(2-(3-Fluoro-6-methoxy-1,5-naphthyridin-4-yl)ethyl)-2-oxabicyclo[2.2.2]octan-4-ylamino)methyl)oxazolo[4,5-b]pyridin-2(3H)-one], the MIC came to 32 µg/mL (≈ 66.7 µM).

Regarding `COc1ccc2ncc(F)c(CCC34CCC(NCc5nc6cccnc6n(C)c5=O)(CC3)CO4)c2n1.Cl` [Example 108, 2-((1-(2-(3-Fluoro-6-methoxy-1,5-naphthyridin-4-yl)ethyl)-2-oxabicyclo[2.2.2]octan-4-ylamino)methyl)-4-methylpyrido[3,2-b]pyrazin-3(4H)-one Hydrochloride], the MIC was over 8 µg/mL.

For `Cl.O=C1COc2ccc(CNC34CCC(CCN5C(=O)COc6cccnc65)(CC3)OC4)nc2N1` [Example 109, 6-((1-(2-(3-Oxo-2H-pyrido[3,2-b][1,4]oxazin-4(3H)-yl)ethyl)-2-oxabicyclo[2.2.2]octan-4-ylamino)methyl)-2H-pyrido[3,2-b][1,4]oxazin-3(4H)-one Hydrochloride], the MIC amounted to 8 µg/mL.

Consider `Cc1nccc2c1ccc(=O)n2CCC12CCC(NCc3ccc4c(n3)NC(=O)CO4)(CC1)CO2` [Example 110, 6-((1-(2-(5-Methyl-2-oxo-1,6-naphthyridin-1(2H)-yl)ethyl)-2-oxabicyclo[2.2.2]octan-4-ylamino)methyl)-2H-pyrido[3,2-b][1,4]oxazin-3(4H)-one], for which the MIC was found to be 4 µg/mL (≈ 8.41 µM).

Turning to `Cc1ccc2ccc(=O)n(CCC34CCC(NCc5ccc6c(n5)NC(=O)CO6)(CC3)CO4)c2n1.Cl` [Example 111, 6-((1-(2-(7-Methyl-2-oxo-1,8-naphthyridin-1(2H)-yl)ethyl)-2-oxabicyclo[2.2.2]octan-4-ylamino)methyl)-2H-pyrido[3,2-b][1,4]oxazin-3(4H)-one Hydrochloride], the MIC amounted to 0.125 µg/mL.

As to `O=C1COc2ccc(CNC34CCC(CCn5c(=O)c6cccn6c6c(F)cccc65)(CC3)OC4)nc2N1` [Example 112, 6-((1-(2-(9-Fluoro-4-oxopyrrolo[1,2-a]quinoxalin-5(4H)-yl)ethyl)-2-oxabicyclo[2.2.2]octan-4-ylamino)methyl)-2H-pyrido[3,2-b][1,4]oxazin-3(4H)-one], the MIC came out at 1 µg/mL (≈ 1.93 µM).

In the case of `Cc1ccc2ccc(OCCC34CCC(NCc5ccc6c(n5)NC(=O)CO6)(CC3)CO4)nc2n1` [Example 113, 6-((1-(2-(7-Methyl-1,8-naphthyridin-2-yloxy)ethyl)-2-oxabicyclo[2.2.2]octan-4-ylamino)methyl)-2H-pyrido[3,2-b][1,4]oxazin-3(4H)-one], the MIC turned out to be 16 µg/mL (≈ 33.6 µM).

As to `Cc1nc2ccccc2n(CCC23CCC(NCc4ccc5c(n4)NC(=O)CO5)(CC2)CO3)c1=O` [Example 114, 6-((1-(2-(3-Methyl-2-oxoquinoxalin-1(2H)-yl)ethyl)-2-oxabicyclo[2.2.2]octan-4-ylamino)methyl)-2H-pyrido[3,2-b][1,4]oxazin-3(4H)-one], the MIC was found to be 4 µg/mL (≈ 8.41 µM).

Values taken from patent US20140243302A1, “BRIDGED BICYCLIC COMPOUNDS FOR THE TREATMENT OF BACTERIAL INFECTIONS” (priority 2011, published 2014).
